Source: patent US7772255B2, “Method of treating tumors with azaxanthones” (Supratek Pharma, Inc., priority 2005, dated 2010)

Experiments:
CSML100 cells = test: Spontaneous metastasis model in mice (Example 27); type: in vivo, mouse
Description: Amlexanox solution for injections was prepared according to the Example 4. CSML100 cells (2.0×10^6 cells per animal) were inoculated subcutaneously to female A/J mice (6-7 weeks old). The animals were then divided randomly into 2 groups (n=9): Intact control (saline) and Amlexanox treated (100 mg/kg, daily i.v. injection for 10 consecutive days). The treatment started from the day following the tumor implantation. The measurement of tumor size was performed since day 11. On day 24, the tumors were surgically removed. The lung metastasis development was analyzed 40 days after the tumor resection.
The data in Table show spontaneous lung metastasis formation in this tumor model. The data are expressed as mean±SEM for the number of metastatic sites on the lung surface.

[1] = system: metastatic (Stage III-IV) breast cancer; test: Amlexanox in women with metastatic breast cancer whose primary tumors are removed surgically (Example 7); type: in vivo, human; details: 500 mg orally twice a day; baseline until nine months after administration and follow-up
Description: In this study, 44 women with metastatic (Stage III-IV) breast cancer whose primary tumors are removed surgically are treated by orally administering 500 mg amlexanox twice a day. The total dose, per patient, is 1,000 mg daily. Baseline assessments are performed at the start of the treatment (treated group) and these baseline results are compared with repeat assessments during various follow-up periods of this treatment. The treatment is conducted for at least ten consecutive days and it is continued further until substantial progression of the disease is noted. The study, which includes treatment of all patients and their follow-up, lasts for at least nine months or until disease progression in the last patient with responding or stable disease. […] In carrying out this study, the response rate and one year survival data for each of the patients in the treated group is determined and compared with an untreated group. […] If there is a delay of the substantial progression of the disease, then treatment is stopped when it is determined that substantial progression of the disease in that patient resumes. […] One week after the first administration of amlexanox, patients are clinically evaluated (adverse event review, concomitant medication and concurrent illness) and the following laboratory evaluations are conducted: hematology, blood chemistry and urinalysis. […]

CC(C)c1ccc2oc3nc(N)c(C(=O)O)cc3c(=O)c2c1 [Amlexanox, 2-amino-7-isopropyl-1-azaxanthone-3-carboxylic acid]
Lung metastasis number 40 days after s.c. tumor resection (CSML100 cells; CSML100 s.c. in A/J mice, 100 mg/kg i.v. daily for 10 days, tumors removed day 24, mean±SEM, one animal (26 metastases) excluded): 1.00 ± 0.55
Subcutaneous tumor size on day 14 (CSML100 cells; CSML100 s.c. in A/J mice, 100 mg/kg i.v. daily injection for 10 days): 0.05 ± 0.02 g
Trial/control × 100% (CSML100 cells; lung metastasis number 40 days after s.c. tumor resection, 100 mg/kg i.v. daily for 10 days): 96.3%
percentage of patients with little or no progression of the disease, compared to the non-treated group [1]: greater percentage of the patients in the group of patients treated with the amlexanox show little or no progression of the disease
